A short description of series [1]: Drug excretion in Sprague-Dawley rat urine at 5 mg/kg, po administered as single dose. In kind it is ADME, organism-based. Also on record: dose 5 mg/kg, route oral. The following applies: read-out: Drug excretion.
The nature of series [2]: Drug excretion in Sprague-Dawley rat feces at 5 mg/kg, po administered as single dose. Type of series: ADME, organism-based. Also noted: dose 5 mg/kg, route oral. As to conditions: faeces, read-out: Drug excretion.
The nature of series [3]: Drug recovery in Sprague-Dawley rat at 5 mg/kg, po administered as single dose. Also noted: dose 5 mg/kg, route oral. The following applies: in vivo, read-out: Drug recovery. Type of series: ADME, organism-based.
Series [4] can be described thus: Drug excretion in beagle dog urine at 5 mg/kg, po administered as single dose. Also noted: dose 5 mg/kg, route oral. As to conditions: read-out: Drug excretion. In kind it is ADME, organism-based, Canis lupus familiaris.
Series [5] can be described thus: Drug excretion in beagle dog feces at 5 mg/kg, po administered as single dose. In kind it is ADME, organism-based, Canis lupus familiaris. Also noted: dose 5 mg/kg, route oral. As to conditions: faeces, read-out: Drug excretion.
Series [6] in a line: Drug recovery in beagle dog at 5 mg/kg, po administered as single dose. Also noted: dose 5 mg/kg, route oral. As to conditions: in vivo, read-out: Drug recovery. Type of series: ADME, organism-based, Canis lupus familiaris.
Series [7] is described as follows: Drug excretion in human urine at […], po administered as single dose. Type of series: ADME, organism-based. Also noted: route oral. As to conditions: read-out: Drug excretion.
Series [8] is described as follows: Drug excretion in human feces at […], po administered as single dose. Type of series: ADME, organism-based. Also noted: route oral. The following applies: faeces, read-out: Drug excretion.
Series [9] is described as follows: Drug recovery in human at […], po administered as single dose. Type of series: ADME, organism-based. Also noted: route oral. The following applies: in vivo, read-out: Drug recovery.
Series [10] relates to Homo sapiens. Description: Cmax in human at […], po administered as single dose. Also noted: route oral. Type of series: ADME, organism-based. As to conditions: in vivo.
For series [11], the system named is Homo sapiens. Description: AUC (0 to 168 hrs) in human at […], po administered as single dose. Also on record: time < 168 hr, route oral. The following applies: in vivo. In kind it is ADME, organism-based, Plasma.
For series [12], the system named is Homo sapiens. Description: AUC (0 to infinity) in human at […], po administered as single dose. Also noted: time infinity, route oral. As to conditions: in vivo. Type of series: ADME, organism-based, Plasma.
Series [13] in a line: Drug metabolism in bile of bile duct-cannulated male Sprague-Dawley rat assessed as PF-00734200 level at 5 mg/kg, po administered as single dose by LC-MS/MS method. In kind it is ADME, organism-based. Also noted: dose 5 mg/kg, route oral. The following applies: in vivo.
Series [14] in a line: Drug metabolism in bile of bile duct-cannulated female Sprague-Dawley rat assessed as PF-00734200 level at 5 mg/kg, po administered as single dose by LC-MS/MS method. As to conditions: in vivo. In kind it is ADME, organism-based. Also on record: dose 5 mg/kg, route oral.
The nature of series [15]: Drug recovery in bile of bile duct-cannulated Sprague-Dawley rat at 5 mg/kg, po administered as single dose by LC-MS/MS method. Type of series: ADME, organism-based. Also on record: dose 5 mg/kg, route oral. As to conditions: read-out: Drug recovery.

Take `O=C([C@@H]1C[C@H](N2CCN([14c]3ncccn3)CC2)CN1)N1CCC(F)(F)C1`: the dose excreted in [1] turned out to be 30.8%; in series [2], 66%; in [3] it was 97.1%; in [4] it was 66.7%; in [5], 16.8%; in series [6] it was 92.2%. Also, the dose excreted in series [7] was found to be 76.8%; in series [8], 10.4%; in [9], 87.2%; in series [15] it was 62.1%. In the series with Homo sapiens [10], the Cmax is 274 ng.Eq/ml. The AUC is 2490 ng.Eq.hr/ml in the series on Homo sapiens [11] and 2850 ng.Eq.hr/ml in the series with Homo sapiens [12]. Also, the Drug metabolism result in series [13] and in series [14] was “metabolite_not_detected” throughout.

For the origin of these results see ChEMBL document CHEMBL3526145, “Metabolism, excretion, and pharmacokinetics of ((3,3-difluoropyrrolidin-1-yl)((2S,4S)-4-(4-(pyrimidin-2-yl)piperazin-1-yl)pyrrolidin-2-yl)methanone, a dipeptidyl peptidase inhibitor, in rat, dog and human” (Drug Metab Dispos, 2012).
